Experimental data published in patent US20240279215A1 (Cytokinetics, Incorporated, priority 2022, published 2024).
Structures can show the parent of a compound that is named as a salt.

target: human NAMPT (Homo sapiens (Human), UniProt P43490); test: NMN fluorescence biochemical assay (human recombinant NAMPT enzyme assay)
Procedure, shortened: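 NMN formed was detected by fluorescence (Ex/Em 355/460 nm) after acetophenone, KOH and formic acid derivatization. The cell-free reaction ran 60 min at ambient temperature with 6 nM human NAMPT, 150 μM nicotinamide, 20 μM PRPP, 2.5 mM ATP, pH 7.2 HEPES, and compound dose responses.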

Sequence of human NAMPT (P43490 whole entry): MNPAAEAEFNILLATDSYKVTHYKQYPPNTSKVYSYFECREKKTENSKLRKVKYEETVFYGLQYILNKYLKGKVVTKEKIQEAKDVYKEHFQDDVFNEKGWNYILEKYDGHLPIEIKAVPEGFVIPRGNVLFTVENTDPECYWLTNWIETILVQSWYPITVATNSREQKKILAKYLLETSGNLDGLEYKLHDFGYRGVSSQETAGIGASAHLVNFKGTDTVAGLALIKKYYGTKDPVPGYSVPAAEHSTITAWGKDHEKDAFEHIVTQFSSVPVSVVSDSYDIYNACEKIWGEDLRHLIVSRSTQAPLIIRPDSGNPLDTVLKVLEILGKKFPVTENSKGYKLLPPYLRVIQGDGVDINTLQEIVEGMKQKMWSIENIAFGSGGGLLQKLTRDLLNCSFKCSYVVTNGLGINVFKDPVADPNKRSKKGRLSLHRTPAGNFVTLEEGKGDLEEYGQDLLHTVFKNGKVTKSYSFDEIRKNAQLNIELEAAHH

AC1.4 Human [µM]	EC50 [µM]	SMILES
2.39	6.35	COc1nc(C)ccc1C(=O)NCc1ccc(NC(=O)OCc2ccc(Cl)cc2)cc1 [Compound 245, (4-chlorophenyl)methyl N-(4-{[(2-methoxy-6-methylpyridin-3-yl)formamido]methyl}phenyl)carbamate]
2.43	6.14	C[C@H](NC(=O)c1cnco1)c1ccc(NC(=O)OCc2ccc(Cl)cc2)cc1 [Compound 246, 4-chlorobenzyl (S)-(4-(1-(oxazole-5-carboxamido)ethyl)phenyl)carbamate]
2.45	16.5	CC(O)(c1ccncc1)c1ccc(NC(=O)OCc2ccc(Cl)cc2)cc1 (stereo not shown) [Compound 247, 4-chlorobenzyl (4-(1-hydroxy-1-(pyridin-4-yl)ethyl)phenyl)carbamate]
2.51	2.4	O=C(Nc1ccc(CNC(=O)c2cccnn2)cc1)OCc1ccc(Cl)cc1 [Compound 248, (4-chlorophenyl)methyl N-{4-[(pyridazin-3-ylformamido)methyl]phenyl}carbamate]
2.58	21.3	CN(Cc1ccc(NC(=O)OCc2ccc(Cl)cc2)cc1)C(=O)c1cncc(F)c1 [Compound 250, (4-chlorophenyl)methyl N-(4-{[1-(5-fluoropyridin-3-yl)-N-methylformamido]methyl}phenyl)carbamate]
2.59	11	Cc1nocc1C(=O)NCc1ccc(NC(=O)OCc2ccc(Cl)cc2)cc1 [Compound 251, (4-chlorophenyl)methyl N-(4-{[(3-methyl-1,2-oxazol-4-yl)formamido]methyl}phenyl)carbamate]
2.60	26.2	O=C(Nc1ccc(CCC2CCNCC2)cc1)OCc1cnco1 [Compound 252, oxazol-5-ylmethyl (4-(2-(piperidin-4-yl)ethyl)phenyl)carbamate hydrochloride]
2.62	17.9	COc1cnn(C)c1C(=O)N(C)Cc1ccc(NC(=O)OCc2ccc(Cl)cc2)cc1 [Compound 253, (4-chlorophenyl)methyl N-(4-{[1-(4-methoxy-2-methylpyrazol-3-yl)-N-methylformamido]methyl}phenyl)carbamate]
2.64	15.1	Cn1ccc(C(=O)NCc2ccc(NC(=O)OCc3ccc(Cl)cc3)cc2)c1 [Compound 254, (4-chlorophenyl)methyl N-(4-{[(1-methylpyrrol-3-yl)formamido]methyl}phenyl)carbamate]
2.65	31.7	Cn1ccc(C(=O)NCc2ccc(NC(=O)OCc3ccc(Cl)cc3)cc2)n1 [Compound 255, (4-chlorophenyl)methyl N-(4-{[(1-methylpyrazol-3-yl)formamido]methyl}phenyl)carbamate]
2.69	10.5	C[C@@H]1CCCN(C(=O)Cc2ccc(NC(=O)OCc3ccc(Cl)cc3)cc2)C1 [Compound 256, (4-chlorophenyl)methyl N-(4-{2-[(3R)-3-methylpiperidin-1-yl]-2-oxoethyl}phenyl)carbamate]
2.70	31.2	O=C(Nc1ccc(CC(=O)N2CCCC[C@H]2CO)cc1)OCc1ccc(Cl)cc1 [Compound 257, (4-chlorophenyl)methyl N-(4-{2-[(2S)-2-(hydroxymethyl)piperidin-1-yl]-2-oxoethyl}phenyl)carbamate]
2.74	7.62	O=C(Nc1ccc(CNC(=O)N2CCN(CC(F)F)CC2)cc1)OCc1ccc(Cl)cc1 [Compound 258, (4-chlorophenyl)methyl N-(4-{[4-(2,2-difluoroethyl)piperazine-1-carbonylamino]methyl}phenyl)carbamate]
2.75	13.9	C[C@H](NC(=O)c1cc(C(F)F)nn1C)c1ccc(NC(=O)OCc2ccc(Cl)cc2)cc1 [Compound 259]
2.77	14.5	CCc1ncoc1C(=O)N[C@@H](C)c1ccc(NC(=O)OCc2ccc(Cl)cc2)cc1 [Compound 260, (4-chlorophenyl)methyl N-{4-[(1S)-1-[(4-ethyl-1,3-oxazol-5-yl)formamido]ethyl]phenyl}carbamate]
2.83	9.46	C[C@H]1CCCN(C(=O)Cc2ccc(NC(=O)OCc3ccc(Cl)cc3)cc2)C1 [Compound 261, (4-chlorophenyl)methyl N-(4-{2-[(3S)-3-methylpiperidin-1-yl]-2-oxoethyl}phenyl)carbamate]
2.83	11.9	COc1ccc(COC(=O)Nc2ccc(Cc3ccncc3)cc2)cc1 [Compound 262, 4-methoxybenzyl (4-(pyridin-4-ylmethyl)phenyl)carbamate]
2.92	39.1	COc1ccc(COC(=O)Nc2ccc([C@H]3CNC(=O)CN3C)cc2)cc1 [Compound 263, 4-methoxybenzyl (S)-(4-(1-methyl-5-oxopiperazin-2-yl)phenyl)carbamate]
2.93	19.7	Cc1ccc(N(C)C(=O)Cc2ccc(NC(=O)OCc3ccc(Cl)cc3)cc2)cn1 [Compound 264, (4-chlorophenyl)methyl N-(4-{[methyl(6-methylpyridin-3-yl)carbamoyl]methyl}phenyl)carbamate]
2.94	23.2	O=C(Nc1ccc(CNC(=O)N2CCC2)cc1)OCc1ccc(Cl)cc1 [Compound 265, (4-chlorophenyl)methyl N-{4-[(azetidine-1-carbonylamino)methyl]phenyl}carbamate]
2.98	14.9	C[C@H](NC(=O)C1CC1)c1ccc(NC(=O)OCc2cnco2)cc1 [Compound 266, 1,3-oxazol-5-ylmethyl N-{4-[(1S)-1-(cyclopropylformamido)ethyl]phenyl}carbamate]
3.04	36.5	Cc1cnc(C(=O)N[C@@H](C)c2ccc(NC(=O)OCc3ccc(Cl)cc3)cc2)o1 [Compound 267, 4-chlorobenzyl (S)-(4-(1-(5-methyloxazole-2-carboxamido)ethyl)phenyl)carbamate]
3.05	13.8	Cc1cnoc1C(=O)NCc1ccc(NC(=O)OCc2ccc(Cl)cc2)cc1 [Compound 268, (4-chlorophenyl)methyl N-(4-{[(4-methyl-1,2-oxazol-5-yl)formamido]methyl}phenyl)carbamate]
3.13	44.1	O=C(Nc1ccc(CCN2CCN(C3COC3)CC2)cc1)OCc1cnco1 [Compound 269, 1,3-oxazol-5-ylmethyl N-(4-{2-[4-(oxetan-3-yl)piperazin-1-yl]ethyl}phenyl)carbamate]
3.14	47.2	O=C(Nc1ccc(CNC(=O)N2CCOCC2)cc1)OCc1ccc(Cl)cc1 [Compound 270, (4-chlorophenyl)methyl N-{4-[(morpholine-4-carbonylamino)methyl]phenyl}carbamate]
3.15	4.8	O=C(Nc1ccc(CNC(=O)c2cncc(F)c2)cc1)OCc1ccc(Cl)cc1 [Compound 271, (4-chlorophenyl)methyl N-(4-{[(5-fluoropyridin-3-yl)formamido]methyl}phenyl)]
